From patent publication US6316500A, “Aliphatically unsaturated hydroxy benzoates and preservative compositions thereof” (ISP Investments Inc., priority 1999, dated 2001)

Legend:
B. cepacia 25416 = experiment: Activity test: preservative challenge test in emulsion, B. cepacia 25416; format: cell-based; conditions: 0.5% preservative in emulsion; for number of colonies per milliliter, 28 days: reinoculated at 21 days
Description: (§1) The emulsion was prepared by separately mixing components in phase A and phase B at 75-80° C. for 15 minutes. The phases were then combined and mixed for another 10 minutes and cooled to 45° C. with stirring. Preservative was then added followed by citric acid to adjust pH to from abut 6.5 to 7.5. Stirring of the resulting mixture was continued until a temperature of 30° C. was reached. The activity tests were carried out using the following microorganisms: A. niger, B. cepacia, C. albicans, E. coli, P. aeruginosa and S. aureus. 50 g aliquots of the test emulsion containing various amounts of the preservative admixture as reported in Tables I-V were inoculated with approximately 10^7 -10^8 of the test organisms. The test samples then were stirred to disperse the challenge inoculum. The samples were incubated and assayed at 48 hours, 7, 14, 21 and 28 days. The assays were performed on 1 g, of the test sample by serially diluting 10^3 to 10^6 of the original concentration. The plating medium for bacteria was Letheen agar and for fungi it was low pH Mycophil agar with Tween 20. Each plated sample was incubated for 48 hours at 37° C. for bacteria, 5 days at 25° C. for mold and 3 days at 25° C. for fungi. After incubation, readings of the number of colonies per milliliter (cfu/ml) were made results were determined, as reported in associated Tables IA-VA. At 21 days the test product was reinoculated with half of the original inoculum.

C. albicans 10231 = experiment: Activity test: preservative challenge test in emulsion, C. albicans 10231; format: cell-based; conditions: 0.5% preservative in emulsion; for number of colonies per milliliter, 28 days: reinoculated at 21 days
Description: as §1

A. niger 16404 = experiment: Activity test: preservative challenge test in emulsion, A. niger 16404; format: cell-based; conditions: 0.5% preservative in emulsion; for number of colonies per milliliter, 28 days: reinoculated at 21 days
Description: as §1

P. aeruginosa 9027 = experiment: Activity test: preservative challenge test in emulsion, P. aeruginosa 9027; format: cell-based; conditions: 0.5% preservative in emulsion; for number of colonies per milliliter, 28 days: reinoculated at 21 days
Description: as §1

S. aureus 6538 = experiment: Activity test: preservative challenge test in emulsion, S. aureus 6538; format: cell-based; conditions: 0.5% preservative in emulsion; for number of colonies per milliliter, 28 days: reinoculated at 21 days
Description: as §1

E. coli 8739 = experiment: Activity test: preservative challenge test in emulsion, E. coli 8739; format: cell-based; conditions: 0.5% preservative in emulsion; for number of colonies per milliliter, 28 days: reinoculated at 21 days
Description: as §1

[1] = Partition coefficients (log of oil/water solubility)
Description: A greater water partitioning is indicated by a low log value.

Row | Compound | number of colonies per milliliter, 48 hr (B. cepacia 25416) | number of colonies per milliliter, 7 days (B. cepacia 25416) | number of colonies per milliliter, 14 days (B. cepacia 25416) | number of colonies per milliliter, 21 days (B. cepacia 25416) | number of colonies per milliliter, 28 days (B. cepacia 25416) | number of colonies per milliliter, 48 hr (C. albicans 10231) | number of colonies per milliliter, 7 days (C. albicans 10231) | number of colonies per milliliter, 14 days (C. albicans 10231) | number of colonies per milliliter, 21 days (C. albicans 10231) | number of colonies per milliliter, 28 days (C. albicans 10231) | number of colonies per milliliter, 48 hr (A. niger 16404) | number of colonies per milliliter, 7 days (A. niger 16404) | number of colonies per milliliter, 14 days (A. niger 16404) | number of colonies per milliliter, 21 days (A. niger 16404) | number of colonies per milliliter, 28 days (A. niger 16404) | number of colonies per milliliter, 48 hr (P. aeruginosa 9027) | number of colonies per milliliter, 7 days (P. aeruginosa 9027) | number of colonies per milliliter, 14 days (P. aeruginosa 9027) | number of colonies per milliliter, 21 days (P. aeruginosa 9027) | number of colonies per milliliter, 28 days (P. aeruginosa 9027) | other results
1 | CC=CC=CCOC(=O)c1ccc(O)cc1O [2,4-Hexadienyl-2,4-dihydroxybenzoate, 2,4-Hexadienyl-2,4-Dihydroxybenzoate] | < 10^6 cfu/ml | < 10^6 cfu/ml | < 10^6 cfu/ml | < 10^6 cfu/ml | < 10^6 cfu/ml | < 10 cfu/ml | < 10 cfu/ml | < 10 cfu/ml | < 10 cfu/ml | < 10 cfu/ml | 4200 cfu/ml | 30 cfu/ml | < 10 cfu/ml | < 10 cfu/ml | < 10 cfu/ml | < 10 cfu/ml | < 10 cfu/ml | < 10 cfu/ml | < 10 cfu/ml | < 10 cfu/ml | number of colonies per milliliter, 48 hr (S. aureus 6538): < 10 cfu/ml; number of colonies per milliliter, 7 days (S. aureus 6538): < 10 cfu/ml; number of colonies per milliliter, 14 days (S. aureus 6538): < 10 cfu/ml; number of colonies per milliliter, 21 days (S. aureus 6538): < 10 cfu/ml; number of colonies per milliliter, 28 days (S. aureus 6538): < 10 cfu/ml; number of colonies per milliliter, 48 hr (E. coli 8739): < 10 cfu/ml; number of colonies per milliliter, 7 days (E. coli 8739): < 10 cfu/ml; number of colonies per milliliter, 14 days (E. coli 8739): < 10 cfu/ml; number of colonies per milliliter, 21 days (E. coli 8739): < 10 cfu/ml; number of colonies per milliliter, 28 days (E. coli 8739): < 10 cfu/ml
2 | CC=CC=CCOC(=O)c1ccc(O)cc1 [2,4-Hexadienyl-4-Hydroxybenzoate] | < 10^6 cfu/ml | < 10^6 cfu/ml | < 10^6 cfu/ml | < 10^6 cfu/ml | < 10^6 cfu/ml | < 10 cfu/ml | < 10 cfu/ml | < 10 cfu/ml | < 10 cfu/ml | < 10 cfu/ml | 4800 cfu/ml | < 10 cfu/ml | < 10 cfu/ml | < 10 cfu/ml | < 10 cfu/ml | < 10 cfu/ml | < 10 cfu/ml | < 10 cfu/ml | < 10 cfu/ml | < 10 cfu/ml | number of colonies per milliliter, 48 hr (S. aureus 6538): < 10 cfu/ml; number of colonies per milliliter, 7 days (S. aureus 6538): < 10 cfu/ml; number of colonies per milliliter, 14 days (S. aureus 6538): < 10 cfu/ml; number of colonies per milliliter, 21 days (S. aureus 6538): < 10 cfu/ml; number of colonies per milliliter, 28 days (S. aureus 6538): < 10 cfu/ml; number of colonies per milliliter, 48 hr (E. coli 8739): < 10 cfu/ml; number of colonies per milliliter, 7 days (E. coli 8739): < 10 cfu/ml; number of colonies per milliliter, 14 days (E. coli 8739): < 10 cfu/ml; number of colonies per milliliter, 21 days (E. coli 8739): < 10 cfu/ml; number of colonies per milliliter, 28 days (E. coli 8739): < 10 cfu/ml
3 | CCCCOC(=O)c1ccc(O)cc1 [Parahydroxy butyl benzoate] |  |  |  |  |  |  |  |  |  |  |  |  |  |  |  |  |  |  |  |  | Log P [1]: 3.57
4 | CCOC(=O)c1ccc(O)cc1 [Parahydroxy ethyl benzoate] |  |  |  |  |  |  |  |  |  |  |  |  |  |  |  |  |  |  |  |  | Log P [1]: 2.47
